Experimental data as given in ChEMBL document CHEMBL6074712, “Optimization of Potent and Selective Cyclohexyl Acid ERAP1 Inhibitors Using Structure- and Property-Based Drug Design” (ACS Med Chem Lett, 2024).

Assay: physchem
Settings: buffer
Description: Aqueous solubility of compound

solubility kinetic	SMILES
≥ 172 µg/mL	O=C(CN1C(=O)COc2ccc(C(F)(F)F)cc21)NC1(C(=O)O)CCCCC1
≥ 112 µg/mL	O=C(CN1C(=O)COc2ccc(Cl)cc21)NC1(C(=O)O)CCCCC1
≥ 157 µg/mL	O=C(Cn1c(=O)oc2ccc(-c3ccccc3)cc21)NC1(C(=O)O)CCCCC1
